In US20210130339A1, “COMPOUNDS” (GLAXOSMITHKLINE INTELLECTUAL PROPERTY DEVELOPMENT LIMITED, priority 2017, published 2021):
Several values for one entry are separate records, joined by “and”; a condition that tells them apart may be missing. Equal entries are not always repeated.

Experiments:
[1] = target: T1, Full length G2019 human LRRK2 (Homo sapiens, UniProt Q5S007); test: Full length G2019 human LRRK2 Inhibition Mass Spectrometry assay; assay type: biochemical; details: LRRKtide substrate, RapidFire mass spectrometry; read-out: pIC50 in the Full length G2019 human LRRK2 Inhibition Mass Spectrometry assay (converted)
T1 construct: purified recombinant Full length Flag-LRRK2 in assay buffer; made in house; host or cells: HEK293 6E cells transduced with BacMam virus (virus generated in Sf9 cells)
Method: a. Full Length G2019 Human LRRK2 Inhibition Mass Spectrometry Assay
This assay for Leucine Rich Repeat Kinase 2 (LRRK2) inhibition is based on the direct measurement of the peptide ‘LRRKtide’ (LRRKtide: RLGRDKYKT*LRQIRQ and “*” refers to the site of phosphorylation.) and phosphorylated ‘LRRKtide’ using a high throughput RapidFire mass spectrometry assay. Inhibitors are compounds that reduce the conversion of LRRKtide to phospho-LRRKtide.
HEK293 6E cells were incubated in a 37° C. incubator with a humidified atmosphere of 5% CO2 on an orbital shaker rotating at 110 rpm. On the day of transduction, the cell viability was higher than 98% and the cell density was in the range of 1×10^6˜1.5×10^6 cells/ml. HEK293 6E cells were centrifuged at 1,000 rpm for 10 min, and then the cells were resuspended in fresh Freestyle 293 expression medium (Invitrogen:12338) with 0.1% F-68 (Invitrogen:24040-032) but without antibiotics (G418) at density of 1×10^6 cells/ml. BacMam virus with Flag-hu LRRK2 (genotypically normal) gene was centrifuged at 40,000 g for 2 hours, then resuspended in fresh Freestyle 293 expression medium. The resuspended virus was added into the cells in at MOI of 10. The cells were incubated in a 37° C. incubator with a humidified atmosphere of 5% CO2 in air on an orbital shaker rotating at 110 rpm. Cultures were harvested at approximately 48 hours post-transduction by centrifugation at 4,000 rpm for 20 min and pellets were frozen for purification.
The suspended cells were lysed by sonication on ice for 30 min (2 secs on/4 sec off, 20% amplitude), and centrifuged at 10,000 rpm for 30 minutes at 4° C. The supernatant was incubated with 1 mL per litre of cell culture of anti-Flag magnetic beads (Sigma-Aldrich: M8823) at 4° C. for 3 hours, then the beads were washed by 5 mL (5 column volume) binding buffer (50 mM Tris pH7.5@ 4C, 500 mM NaCl, 0.5 mM EDTA, 0.1% TritonX-100, 10% glycerol, freshly add 2 mM DTT) for three times. The Flag tagged LRRK2 proteins were eluted by Elution buffer (50 mM Tris pH7.5@ 4C, 500 mM NaCl, 0.5 mM EDTA, 0.1% TritonX-100, 10% glycerol, freshly add 2 mM DTT, 250 ug/ml Flag peptide (Sigma-Aldrich:F3290)) at 4° C. for 2 hours. Flag peptide was removed by Zeba Spin Desalting Columns, 7K MWCO (Thermo-Fisher: 89893) and the buffer of eluted LRRK2 proteins was exchanged into Storage Buffer (50 mM Tris pH7.5@4C, 150 mM NaCl, 0.5 mM EDTA, 0.02% Triton X-100, 2 mM DTT and 50% Glycerol) using Amicon Ultra Centrifugal Filter Units (100 kD) (Merck: UFC910096). Fractions containing LRRK2 proteins were pooled, aliquoted and stored at −80° C. Protein concentration was determined by Bradford protein assay, and protein purity was analyzed by NuPAG Novex 4-12% Bis-Tris Protein Gels (Invitrogen: NP0322BOX).
• 1) A 10 mM test compound was dissolved in 100% DMSO and serially diluted 1 in 4. 100 nL of this dilution series was then added to a 384 well, v bottom polypropylene plate, excluding columns 6 and 18. 100 nL of DMSO was added to columns 6 and 18 as controls wells. Assay dilution gave a top final assay concentration of test compound of 100 μM • 2) 50 μl of 1% formic acid in laboratory grade water was added to column 18 using a multidrop combi dispenser to act as a pre stopped assay control. • 3) 5 μl of ‘enzyme solution’ containing 50 nM of purified recombinant Full length Flag-LRRK2 in assay buffer (50 mM Hepes (pH 7.2), 10 mM MgCl2, 150 mM NaCl, 5% glycerol, 0.0025% triton X-100 and 1 mM DTT) was added to all wells using a multidrop combi dispenser, giving a final assay concentration of 25 nM LRRK2 enzyme. […] Test plates were then incubated for 30 minutes at room temperature. • 4) 5 μl ‘substrate solution’ containing 50 uM LRRKtide peptide substrate and 4 mM ATP was added to all wells of the plate using a multidrop combi dispenser giving a final assay concentration of 25 uM LRRKtide and 2 mM ATP. Test plates were then incubated for 1 hour at room temperature. […]

[2] = target: T2, recombinant full length LRRK2 (Homo sapiens, UniProt Q5S007); test: Recombinant cellular LRRK2 AlphaScreen assay; assay type: cell-based; details: LRRK2 Ser935 phosphorylation, SH-SY5Y cells over-expressing recombinant full length LRRK2; read-out: pIC50 in the recombinant cellular LRRK2 AlphaScreen assay (converted)
T2 construct: A BacMam virus expressing full length recombinant LRRK2 was purchased from Invitrogen; host or cells: SH-SY5Y human neuroblastoma cells transduced with BacMam LRRK2 virus (MOI 50)
From the text: b. Recombinant Cellular LRRK2 AlphaScreen Assay
To determine the activity of compounds against LRRK2 kinase activity in cells, the observed LRRK2 kinase-dependent modulation of LRRK2 Ser 935 phosphorylation (Dzamko et al., 2010, Biochem. J. 430: 405-413) was utilized to develop a quantitative 384 well plate-based immunoassay of LRRK2 Ser935 phosphorylation in the human neuroblastoma cell line SH-SY5Y, engineered to over-express recombinant full length LRRK2 protein. A BacMam virus expressing full length recombinant LRRK2 was purchased from Invitrogen and amplified by inoculation of SF-9 cells at MOI 0.3 for 4-5 days in Sf-900 III SFM medium supplemented with 3% fetal bovine serum. Infected cell cultures were then centrifuged at 2000 g for 20 minutes, viral supernatant titer determined by anti-gp64 plaque assay and stored at 4° C. Affinity-purified anti-phospho LRRK2 Ser935 sheep polyclonal antibody (Dzamko et al., 2010, Biochem. J. 430: 405-413) was biotinylated by standard methods (PerkinElmer). Anti-LRRK2 rabbit polyclonal antibody was purchased from Novus Biologicals. AlphaScreen Protein A IgG Kit (including acceptor and donor beads) was purchased from Perkin Elmer. SH-SY5Y cells were grown in DMEM/F12 medium with 10% dialysed fetal bovine serum and harvested by treatment with 0.5% trypsin-EDTA for 5 minutes at 37° C. followed by centrifugation at 1000 rpm for 4 minutes. The cell pellet was resuspended in Opti-MEM reduced serum media (Invitrogen) at 200,000 cells/ml and mixed with the BacMam LRRK2 virus at MOI=50. 50 μl cell solutions were then dispensed to each well of a 384-well plate and incubated at 37° C., 5% CO2 for 24 hours. Serial dilutions of test compounds were prepared in Opti-MEM reduced serum media (Invitrogen) and 5.6 ul transferred from compound plate to cell assay plate to achieve a top final assay concentration of 10 uM. DMSO was used in certain wells as controls. Cells were incubated at 37° C., 5% CO2 for 60 minutes. The medium was then removed and cells lysed by addition of 20 ul cell lysis buffer (Cell Signaling Technology) and incubation at 4° C. for 20 minutes. 10 ul of antibody/acceptor bead mix [(1/1000 biotinylated-pS935 LRRK2 antibody, 1/1000 total-LRRK2 antibody, 1/100 Acceptor beads in AlphaScreen detection buffer (25 mM Hepes (pH 7.4), 0.5% Triton X-100, 1 mg/ml Dextran 500 and 0.1% BSA)] was then added to each well and plates incubated for 2 hours at ambient temperature in the dark. 10 μl of donor beads solution (1/33.3 donor beads in AlphaScreen detection buffer) was then added to each well. Following incubation for a further 2 hours at ambient temperature in the dark, plates were read on an EnVision™ plate reader at emission 520-620 nm with excitation 680 nm. Dose response curve data was based on sigmoidal dose-response model.

T2 sequence (Q5S007 whole entry): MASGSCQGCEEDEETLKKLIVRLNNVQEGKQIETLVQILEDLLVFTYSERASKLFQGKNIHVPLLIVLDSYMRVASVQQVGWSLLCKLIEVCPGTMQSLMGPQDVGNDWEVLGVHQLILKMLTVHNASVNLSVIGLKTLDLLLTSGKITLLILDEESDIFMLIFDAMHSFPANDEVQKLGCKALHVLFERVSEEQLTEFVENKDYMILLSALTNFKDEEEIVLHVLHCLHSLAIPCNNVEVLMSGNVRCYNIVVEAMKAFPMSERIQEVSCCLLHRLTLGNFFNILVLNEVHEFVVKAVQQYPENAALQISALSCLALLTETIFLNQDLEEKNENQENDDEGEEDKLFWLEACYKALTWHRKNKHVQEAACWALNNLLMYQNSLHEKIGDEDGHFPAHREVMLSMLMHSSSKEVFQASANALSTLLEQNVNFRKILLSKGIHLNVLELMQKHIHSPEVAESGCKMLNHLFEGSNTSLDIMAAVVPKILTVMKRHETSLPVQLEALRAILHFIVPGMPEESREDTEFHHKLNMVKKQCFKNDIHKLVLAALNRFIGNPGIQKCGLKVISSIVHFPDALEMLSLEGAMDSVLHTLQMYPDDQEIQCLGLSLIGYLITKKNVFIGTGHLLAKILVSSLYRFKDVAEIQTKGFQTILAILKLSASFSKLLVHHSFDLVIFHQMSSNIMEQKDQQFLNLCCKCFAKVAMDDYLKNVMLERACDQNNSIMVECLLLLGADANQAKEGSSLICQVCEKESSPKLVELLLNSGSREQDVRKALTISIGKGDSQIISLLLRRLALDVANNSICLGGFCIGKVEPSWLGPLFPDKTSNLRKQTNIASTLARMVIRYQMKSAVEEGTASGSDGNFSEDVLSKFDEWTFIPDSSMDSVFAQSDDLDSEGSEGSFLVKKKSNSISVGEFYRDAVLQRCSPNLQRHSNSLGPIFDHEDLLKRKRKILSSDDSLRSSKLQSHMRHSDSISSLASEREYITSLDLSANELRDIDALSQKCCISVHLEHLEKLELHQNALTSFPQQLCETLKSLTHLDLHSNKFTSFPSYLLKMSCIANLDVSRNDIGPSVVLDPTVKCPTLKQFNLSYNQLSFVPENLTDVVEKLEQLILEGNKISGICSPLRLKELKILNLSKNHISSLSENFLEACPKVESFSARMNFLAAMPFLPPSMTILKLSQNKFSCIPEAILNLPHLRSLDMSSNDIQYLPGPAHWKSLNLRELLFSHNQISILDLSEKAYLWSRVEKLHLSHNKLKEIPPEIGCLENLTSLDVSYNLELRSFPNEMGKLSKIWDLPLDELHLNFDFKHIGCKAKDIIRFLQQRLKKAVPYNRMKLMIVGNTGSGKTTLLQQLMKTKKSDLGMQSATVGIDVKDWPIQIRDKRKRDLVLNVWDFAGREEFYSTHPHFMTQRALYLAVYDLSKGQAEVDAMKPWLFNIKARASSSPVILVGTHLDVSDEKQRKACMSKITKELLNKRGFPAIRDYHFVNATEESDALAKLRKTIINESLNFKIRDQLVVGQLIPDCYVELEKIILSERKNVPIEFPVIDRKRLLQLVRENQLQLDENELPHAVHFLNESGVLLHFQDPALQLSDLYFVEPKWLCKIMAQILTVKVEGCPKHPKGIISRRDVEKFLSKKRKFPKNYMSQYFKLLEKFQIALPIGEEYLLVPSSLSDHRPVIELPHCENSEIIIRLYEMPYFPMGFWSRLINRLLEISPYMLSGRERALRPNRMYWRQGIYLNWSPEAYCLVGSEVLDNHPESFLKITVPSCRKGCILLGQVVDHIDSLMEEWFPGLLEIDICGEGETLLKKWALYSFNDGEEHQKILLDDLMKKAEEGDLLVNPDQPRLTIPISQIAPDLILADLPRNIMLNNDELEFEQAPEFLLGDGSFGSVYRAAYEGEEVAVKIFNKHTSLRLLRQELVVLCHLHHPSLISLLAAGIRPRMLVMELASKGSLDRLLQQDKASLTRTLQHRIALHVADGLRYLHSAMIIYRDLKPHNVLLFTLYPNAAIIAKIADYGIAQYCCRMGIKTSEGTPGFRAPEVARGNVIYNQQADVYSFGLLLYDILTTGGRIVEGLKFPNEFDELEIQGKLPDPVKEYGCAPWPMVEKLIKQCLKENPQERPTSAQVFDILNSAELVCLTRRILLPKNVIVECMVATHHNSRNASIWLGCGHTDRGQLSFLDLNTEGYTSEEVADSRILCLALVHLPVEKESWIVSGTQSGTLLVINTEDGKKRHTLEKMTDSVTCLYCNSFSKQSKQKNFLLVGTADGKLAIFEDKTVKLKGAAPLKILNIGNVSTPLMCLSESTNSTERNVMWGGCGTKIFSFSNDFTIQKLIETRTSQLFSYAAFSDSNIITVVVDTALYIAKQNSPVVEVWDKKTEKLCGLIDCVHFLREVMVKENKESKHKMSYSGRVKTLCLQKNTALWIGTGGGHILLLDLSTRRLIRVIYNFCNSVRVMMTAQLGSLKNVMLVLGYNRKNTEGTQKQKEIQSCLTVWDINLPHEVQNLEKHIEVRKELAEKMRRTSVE
T1 sequence (Q5S007 with tags, fused parts or gaps R50H): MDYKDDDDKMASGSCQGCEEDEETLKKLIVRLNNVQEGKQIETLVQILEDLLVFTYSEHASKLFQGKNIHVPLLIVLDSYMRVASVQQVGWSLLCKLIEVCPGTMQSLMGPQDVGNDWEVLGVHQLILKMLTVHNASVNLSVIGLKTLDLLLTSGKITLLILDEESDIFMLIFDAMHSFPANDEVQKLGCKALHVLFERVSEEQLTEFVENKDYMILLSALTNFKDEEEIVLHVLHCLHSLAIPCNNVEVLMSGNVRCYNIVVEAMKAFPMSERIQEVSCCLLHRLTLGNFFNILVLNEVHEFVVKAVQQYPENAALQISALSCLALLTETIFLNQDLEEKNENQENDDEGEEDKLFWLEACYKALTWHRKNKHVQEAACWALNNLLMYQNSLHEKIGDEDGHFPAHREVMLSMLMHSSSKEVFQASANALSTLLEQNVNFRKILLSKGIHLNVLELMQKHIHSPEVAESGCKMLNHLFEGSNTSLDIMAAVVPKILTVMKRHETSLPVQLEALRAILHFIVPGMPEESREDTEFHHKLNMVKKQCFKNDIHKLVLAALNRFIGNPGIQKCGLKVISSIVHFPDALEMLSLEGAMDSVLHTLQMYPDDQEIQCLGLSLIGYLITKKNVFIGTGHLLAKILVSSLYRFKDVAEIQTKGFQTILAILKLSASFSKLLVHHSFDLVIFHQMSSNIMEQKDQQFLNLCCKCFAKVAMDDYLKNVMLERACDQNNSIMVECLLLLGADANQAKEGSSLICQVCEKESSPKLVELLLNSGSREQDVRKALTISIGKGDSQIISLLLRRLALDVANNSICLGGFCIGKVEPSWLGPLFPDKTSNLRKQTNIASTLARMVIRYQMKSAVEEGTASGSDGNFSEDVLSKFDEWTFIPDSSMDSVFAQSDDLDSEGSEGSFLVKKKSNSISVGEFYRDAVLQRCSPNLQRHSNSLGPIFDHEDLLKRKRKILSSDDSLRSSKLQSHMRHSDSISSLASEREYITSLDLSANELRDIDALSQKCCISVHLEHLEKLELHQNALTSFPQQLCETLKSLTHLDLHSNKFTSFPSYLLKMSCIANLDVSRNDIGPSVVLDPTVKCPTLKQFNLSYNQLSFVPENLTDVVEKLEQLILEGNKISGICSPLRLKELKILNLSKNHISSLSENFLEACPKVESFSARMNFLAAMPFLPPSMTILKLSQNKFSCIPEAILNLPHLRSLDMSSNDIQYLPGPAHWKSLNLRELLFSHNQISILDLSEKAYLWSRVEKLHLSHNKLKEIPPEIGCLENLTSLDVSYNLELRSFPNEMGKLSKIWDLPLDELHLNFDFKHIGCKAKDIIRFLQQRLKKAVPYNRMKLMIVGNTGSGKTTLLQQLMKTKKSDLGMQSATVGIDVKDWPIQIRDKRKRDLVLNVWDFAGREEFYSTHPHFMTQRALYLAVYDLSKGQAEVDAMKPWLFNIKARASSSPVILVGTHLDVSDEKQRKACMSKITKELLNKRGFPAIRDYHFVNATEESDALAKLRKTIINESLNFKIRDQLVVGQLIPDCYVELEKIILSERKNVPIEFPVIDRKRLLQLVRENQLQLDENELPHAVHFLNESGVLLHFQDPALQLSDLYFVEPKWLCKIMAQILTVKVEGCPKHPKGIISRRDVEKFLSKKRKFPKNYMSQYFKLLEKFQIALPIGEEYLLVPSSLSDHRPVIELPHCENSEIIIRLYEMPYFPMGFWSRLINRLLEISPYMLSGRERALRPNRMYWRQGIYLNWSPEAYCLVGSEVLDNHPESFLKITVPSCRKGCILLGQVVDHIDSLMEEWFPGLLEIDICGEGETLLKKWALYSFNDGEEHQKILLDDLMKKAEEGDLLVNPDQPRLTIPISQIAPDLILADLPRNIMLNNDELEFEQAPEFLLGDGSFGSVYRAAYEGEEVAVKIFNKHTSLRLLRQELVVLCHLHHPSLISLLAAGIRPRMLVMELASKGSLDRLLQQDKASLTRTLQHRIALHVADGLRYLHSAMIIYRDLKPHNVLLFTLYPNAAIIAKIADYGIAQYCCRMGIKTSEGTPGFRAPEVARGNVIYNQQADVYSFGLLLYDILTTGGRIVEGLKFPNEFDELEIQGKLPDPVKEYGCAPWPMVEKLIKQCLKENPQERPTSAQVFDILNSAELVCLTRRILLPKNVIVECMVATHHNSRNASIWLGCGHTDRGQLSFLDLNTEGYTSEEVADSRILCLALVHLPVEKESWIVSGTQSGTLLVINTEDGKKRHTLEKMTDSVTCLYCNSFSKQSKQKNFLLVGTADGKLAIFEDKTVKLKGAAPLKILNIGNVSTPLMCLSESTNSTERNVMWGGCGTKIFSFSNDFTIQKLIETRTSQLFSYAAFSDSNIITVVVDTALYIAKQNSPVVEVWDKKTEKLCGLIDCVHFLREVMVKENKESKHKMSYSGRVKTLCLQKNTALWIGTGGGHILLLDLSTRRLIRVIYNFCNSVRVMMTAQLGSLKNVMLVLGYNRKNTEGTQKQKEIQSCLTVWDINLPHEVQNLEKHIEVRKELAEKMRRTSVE

**Q.** Which IC50 [1] does the source give for [2H]C1(N2CCC(c3cc4c(cnn4-c4cc(N5CCO[C@H](CO)C5)nc(C)n4)cc3C)CC2)CCOC1 (single isomer, unassigned) [Example E34] here?
**A.** ≤ 1000 nM and 63.1 nM

**Q.** And the IC50 [2]?
**A.** ≤ 100 nM and 100 nM

**Q.** How did the IC50 [1] turn out when COc1nc(N2CCOCC2)cc(-n2ncc3cc(C)c(C4CCN(C5CCOC5)CC4F)cc32)n1 (single isomer, unassigned) [Example E115, Cis-4-(6-(6-(3-fluoro-1-(tetrahydrofuran-3-yl)-piperidin-4-yl)-5-methyl-1H-indazol-1-yl)-2-methoxypyrimidin-4-yl)morpholine] was run?
**A.** ≤ 10 nM

**Q.** And the IC50 [2]?
**A.** ≤ 10 nM

**Q.** For Cc1nc(N2CCOC[C@@H]2CO)cc(-n2ncc3cc(C)c(C4CCN(C5CCOC5)CC4)cc32)n1 (single isomer, unassigned) [Example E113], which IC50 [1] is on record?
**A.** ≤ 1000 nM

**Q.** And the IC50 [2]?
**A.** ≤ 1000 nM

**Q.** With COc1nc(N2CCO[C@@H](CO)C2)cc(-n2ncc3cc(C)c(C4CCN(C5CCOC5)CC4F)cc32)n1 (single isomer, unassigned) [Example E118] as the compound, how does the IC50 [1] read?
**A.** ≤ 10 nM

**Q.** And the IC50 [2]?
**A.** ≤ 10 nM

**Q.** With COc1nc(N2CCO[C@H](CO)C2)cc(-n2ncc3cc(C)c(C4CCN(C5CCOC5)CC4F)cc32)n1 (single isomer, unassigned) [Example E124] as the compound, how does the IC50 [1] read?
**A.** ≤ 100 nM

**Q.** And the IC50 [2]?
**A.** ≤ 100 nM

**Q.** Cc1nc(N2CCO[C@H](CO)C2)cc(-n2ncc3cc(C)c(C4CCN(C5COCC5O)CC4)cc32)n1 (single isomer, unassigned) [Example E153] was tested. Which IC50 [1] did it give?
**A.** ≤ 100 nM

**Q.** What about the IC50 [2] of the same compound?
**A.** ≤ 100 nM

**Q.** With Cc1nc(N2CCOC(C(C)O)C2)cc(-n2ncc3cc(C)c(C4CCN(C5CCOC5)CC4)cc32)n1 (single isomer, unassigned) [Example E141, 1-(4-(2-methyl-6-(5-methyl-6-(1-(tetrahydrofuran-3-yl)piperidin-4-yl)-1H-indazol-1-yl)pyrimidin-4-yl)morpholin-2-yl)ethanol] as the compound, how does the IC50 [1] read?
**A.** ≤ 100 nM

**Q.** And the IC50 [2]?
**A.** ≤ 1000 nM

**Q.** What does the source list for Cc1nc(N2CCO[C@@H](CO)C2)cc(-n2ncc3cc(Cl)c(C4CCN(C5CCOC5)CC4)cc32)n1 (single isomer, unassigned) [Example E130]?
**A.** IC50 [1]: ≤ 100 nM; IC50 [2]: ≤ 100 nM

**Q.** What does the source list for COc1nc(N2CCO[C@@H](CO)C2)cc(-n2ncc3cc(C)c(C4CCN(C5CCOC5)CC4F)cc32)n1 (single isomer, unassigned) [Example E117]?
**A.** IC50 [1]: ≤ 1000 nM; IC50 [2]: ≤ 10 nM

**Q.** For Cc1nc(N[C@H]2C[C@@H](O)C2)cc(-n2ncc3cc(C)c(C4CCN(C5CCOC5)CC4)cc32)n1 (single isomer, unassigned) [Example E133, Cis-3-((2-methyl-6-(5-methyl-6-(1-(tetrahydrofuran-3-yl)piperidin-4-yl)-1H-indazol-1-yl)pyrimidin-4-yl)amino)cyclobutanol], which IC50 [1] is on record?
**A.** ≤ 1000 nM

**Q.** And the IC50 [2]?
**A.** ≤ 1000 nM

**Q.** Cc1nc(N2CCOC(C(C)O)C2)cc(-n2ncc3cc(C)c(C4CCN(C5CCOC5)CC4)cc32)n1 (single isomer, unassigned) [Example E139, 1-(4-(2-methyl-6-(5-methyl-6-(1-(tetrahydrofuran-3-yl)piperidin-4-yl)-1H-indazol-1-yl)pyrimidin-4-yl)morpholin-2-yl)ethanol] was tested. Which IC50 [1] did it give?
**A.** ≤ 1000 nM

**Q.** And the IC50 [2]?
**A.** ≤ 1000 nM

**Q.** For Cc1nc(N2CCO[C@@H](CO)C2)cc(-n2ncc3cc(C)c(C4CCN([C@H]5CCOC5)CC4)cc32)n1 (single isomer, unassigned) [Example E4], which IC50 [1] is on record?
**A.** 25.1 nM

**Q.** What about the IC50 [2] of the same compound?
**A.** 100 nM

**Q.** Which IC50 [1] does the source give for COc1nc(N2CCOCC2)cc(-n2ncc3cc(C)c(C4CCN(C5CCOC5)CC4F)cc32)n1 (single isomer, unassigned) [Example E116, Cis-4-(6-(6-(3-fluoro-1-(tetrahydrofuran-3-yl)-piperidin-4-yl)-5-methyl-1H-indazol-1-yl)-2-methoxypyrimidin-4-yl)morpholine] here?
**A.** ≤ 100 nM

**Q.** And the IC50 [2]?
**A.** ≤ 100 nM

**Q.** For Cc1nc(N2CCOC(C)(CO)C2)cc(-n2ncc3cc(C)c(C4CCN([C@H]5CCOC5)CC4)cc32)n1 (stereo partly drawn) [Example E156, (2-methyl-4-(2-methyl-6-(5-methyl-6-(1-((S)-tetrahydrofuran-3-yl)piperidin-4-yl)-1H-indazol-1-yl)pyrimidin-4-yl)morpholin-2-yl)methanol], which IC50 [1] is on record?
**A.** ≤ 100 nM

**Q.** And the IC50 [2]?
**A.** ≤ 1000 nM

**Q.** What does the source list for Cc1nc(N2CCOC(C(C)O)C2)cc(-n2ncc3cc(C)c(C4CCN(C5CCOC5)CC4)cc32)n1 (single isomer, unassigned) [Example E135, 1-(4-(2-methyl-6-(5-methyl-6-(1-(tetrahydrofuran-3-yl)piperidin-4-yl)-1H-indazol-1-yl)pyrimidin-4-yl)morpholin-2-yl)ethanol]?
**A.** IC50 [1]: ≤ 100 nM; IC50 [2]: ≤ 100 nM
